Legend:
sedge, umbrella = experiment: Test B flooded paddy test; assay type: in vivo, Cyperus difformis; details: 500 g ai/ha, Flood; scale of 0 to 100 where 0 is no effect and 100 is complete control
In short: (§1)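 Treatment was made at the 2-leaf stage by dosing the standing floodwater, kept 3 cm above soil level for the whole test. Greenhouse exposure lasted 13 to 15 days. Response is a visual percent rating relative to controls, where a dash indicates no test result.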

galium = experiment: Test A postemergence herbicide test; assay type: in vivo, Galium aparine
In short: (§2)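 Injury was rated visually about 10 days after treatment on a 0 (no effect) to 100 (complete control) scale, compared with untreated plants. Test chemicals were sprayed postemergence onto greenhouse plants 2–10 cm high at one to two leaves, grown in a loam–sand blend.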

rice = experiment: Test B flooded paddy test; assay type: in vivo, Oryza sativa; details: 500 g ai/ha, Flood; scale of 0 to 100 where 0 is no effect and 100 is complete control
In short: as §1

corn = experiment: Test A pre-/postemergence herbicide test; assay type: in vivo, Zea mays; details: Postemergence
In short: (§3)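 Scoring was visual, relative to untreated controls, on a 0–100 scale after about 10 greenhouse days. Preemergence treatment used a directed soil spray over seeded loam/sand; postemergence treatment targeted one- to two-leaf plants of 2–10 cm.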

kochia = experiment: Test A pre-/postemergence herbicide test; assay type: in vivo, Kochia scoparia
In short: as §3

giant foxtail = experiment: Test A pre-/postemergence herbicide test; assay type: in vivo, Setaria faberii
In short: as §3

barnyardgrass [1] = experiment: Test A pre-/postemergence herbicide test; assay type: in vivo, Echinochloa crus-galli
In short: as §3

barnyardgrass [2] = experiment: Test B flooded paddy test; assay type: in vivo, Echinochloa crus-galli; details: 500 g ai/ha, Flood; scale of 0 to 100 where 0 is no effect and 100 is complete control
In short: as §1

ducksalad = experiment: Test B flooded paddy test; assay type: in vivo, Heteranthera limosa; details: 500 g ai/ha, Flood; scale of 0 to 100 where 0 is no effect and 100 is complete control
In short: as §1

pigweed = experiment: Test A pre-/postemergence herbicide test; assay type: in vivo, Amaranthus retroflexus
In short: as §3

ragweed = experiment: Test A pre-/postemergence herbicide test; assay type: in vivo, Ambrosia elatior
In short: as §3

ryegrass, Italian = experiment: Test A pre-/postemergence herbicide test; assay type: in vivo, Lolium multiflorum
In short: as §3

wheat = experiment: Test A pre-/postemergence herbicide test; assay type: in vivo, Triticum aestivum; details: Postemergence
In short: as §3

blackgrass = experiment: Test A postemergence herbicide test; assay type: in vivo, Alopecurus myosuroides
In short: as §2

[3] = 125 g ai/ha, visual rating on 0 to 100 scale (0 no effect, 100 complete control), approx. 10 days
[4] = 500 g ai/ha, 0 to 100 scale (0 no effect, 100 complete control)
[5] = Postemergence, 125 g ai/ha, visual rating on 0 to 100 scale (0 no effect, 100 complete control), approx. 10 days
[6] = Postemergence, 500 g ai/ha, 0 to 100 scale (0 no effect, 100 complete control)
[7] = Preemergence, 125 g ai/ha, 0 to 100 scale where 0 is no effect and 100 is complete control
[8] = Preemergence, 500 g ai/ha, visual rating on 0 to 100 scale (0 no effect, 100 complete control)
[9] = 125 g ai/ha, 0 to 100 scale, 0 is no effect, 100 is complete control
[10] = Postemergence, 125 g ai/ha, 0 to 100 scale, 0 is no effect, 100 is complete control
[11] = preemergence, 500 g ai/ha, 0 to 100 scale, 0 is no effect and 100 is complete control

Structure (SMILES)	Plant response rating, Sedge, Umbrella (sedge, umbrella)	Plant response rating, Galium (galium; [4])	Plant response rating, Rice (rice)	Plant response rating, Corn (corn; [4])	Plant response rating, Kochia (kochia; [6])	Plant response rating, Kochia (kochia; [7])	Plant response rating, Foxtail, Giant (giant foxtail; [6])	Plant response rating, Foxtail, Giant (giant foxtail; [7])	Plant response rating, Barnyardgrass (barnyardgrass [1]; [6])	Plant response rating, Barnyardgrass (barnyardgrass [1]; [7])	Plant response rating, Barnyardgrass (barnyardgrass [2])	Plant response rating, Ducksalad (ducksalad)	Plant response rating, Pigweed (pigweed; [5])	Plant response rating, Pigweed (pigweed; [6])	Plant response rating, Pigweed (pigweed; [7])	Plant response rating, Ragweed (ragweed; [5])	Plant response rating, Ragweed (ragweed; [6])	Plant response rating, Ragweed (ragweed; [7])	Plant response rating, Ryegrass, Italian (ryegrass, Italian; [5])	Plant response rating, Ryegrass, Italian (ryegrass, Italian; [6])	other results
CC1(c2ccccc2)CNC(=O)C1C(=O)Nc1ccccc1F (stereo not drawn) [Compound 301]	0	0	0	0	0	0	0	0	0	0	0	0	0	0	0	0	0	0	0	0	Plant response rating, Galium (galium; [3]): 0; Plant response rating, Corn (corn; [3]): 0; Plant response rating, Kochia (kochia; [5]): 0; Kochia plant response rating (kochia; [8]): 0; Plant response rating, Foxtail, Giant (giant foxtail; [5]): 0; Foxtail, Giant plant response rating (giant foxtail; [8]): 0; Plant response rating, Barnyardgrass (barnyardgrass [1]; [5]): 0; Barnyardgrass plant response rating (barnyardgrass [1]; [8]): 0; Pigweed plant response rating (pigweed; [8]): 0; Ragweed plant response rating (ragweed; [8]): 0; Plant response rating, Ryegrass, Italian (ryegrass, Italian; [7]): 0; Ryegrass, Italian plant response rating (ryegrass, Italian; [8]): 0; Plant response rating, Wheat (wheat; [3]): 0; Plant response rating, Wheat (wheat; [4]): 0; Plant response rating, Blackgrass (blackgrass; [3]): 0; Plant response rating, Blackgrass (blackgrass; [4]): 0
O=C1NCC(c2cc3ccccc3o2)C1C(=O)Nc1cccc(F)c1F (stereo not drawn) [Compound 282]	30	40	0	0	0	0	30	20	90	60	30	95	0	0	0	0	0	0	0	0	Plant response rating, Galium (galium; [9]): 0; Plant response rating, Corn (corn; [9]): 0; Plant response rating, Kochia (kochia; [10]): 0; Plant response rating, Kochia (kochia; [11]): 50; Plant response rating, Foxtail, Giant (giant foxtail; [10]): 0; Plant response rating, Foxtail, Giant (giant foxtail; [11]): 70; Plant response rating, Barnyardgrass (barnyardgrass [1]; [10]): 50; Plant response rating, Barnyardgrass (barnyardgrass [1]; [11]): 90; Plant response rating, Pigweed (pigweed; [11]): 0; Plant response rating, Ragweed (ragweed; [11]): 0; Plant response rating, Ryegrass, Italian (ryegrass, Italian; [7]): 0; Plant response rating, Ryegrass, Italian (ryegrass, Italian; [11]): 0; Plant response rating, Wheat (wheat; [3]): 0; Plant response rating, Wheat (wheat; [4]): 0; Plant response rating, Blackgrass (blackgrass; [9]): 0; Plant response rating, Blackgrass (blackgrass; [4]): 20

Source: US10294202B2, “Pyrrolidinones as herbicides” (FMC Corporation, priority 2013, dated 2019)
